We go through ten compounds from ChEMBL document CHEMBL3593220, “Antimitotic and antivascular activity of heteroaroyl-2-hydroxy-3,4,5-trimethoxybenzenes” (Bioorg Med Chem, 2015).

Structures are written as SMILES. pIC50: −log10 of the molar value. Calls of active or inactive are those of the source. The rule behind the calls is not given here.

As a reminder, the pIC50 is the IC50 on a negative log10 scale, so that one unit is a factor of ten. The term inhibition denotes the relative decrease from the control value, in per cent.

Data set [1] can be described thus: Antiproliferative activity against human KB-7d cells expressing MRP after 72 hrs by methylene blue assay. In kind it is functional, cell-based. Conditions: KB7D.
The test system of data set [2] is HT-29. The experiment in a line: Antiproliferative activity against human HT-29 cells after 72 hrs by methylene blue assay. In kind it is functional, cell-based.
The target in data set [3] is Tubulin (Homo sapiens) (UniProt P68371+Q9H4B7+P0DPH7+P68366+Q13509+Q71U36+P04350+Q3ZCM7+P07437+P68363+Q9BQE3+Q6PEY2+Q13885+Q9BVA1+Q9BUF5). Nature of the data set: Displacement of 1 uM of [3H]colchicine from biotin-labeled tubulin (unknown origin) after 2 hrs by scintillation proximity assay. Format: protein-complex assay. In general terms: Scintillation proximity formats need no separation of bound from free tracer.

For data set [4], the target named is Tubulin (Bos taurus, UniProt Q6B856+Q862F3). Nature of the data set: Inhibition of bovine brain tubulin polymerization after 30 mins.
A short description of data set [5]: Antiproliferative activity against human MKN45 cells after 72 hrs by methylene blue assay. Format: functional, cell-based. To be noted: MKN-45, 72 h.
Data set [6] concerns KB. The experiment in a line: Antiproliferative activity against human KB cells after 72 hrs by methylene blue assay. In kind it is functional, cell-based.
A short description of data set [7]: Antiproliferative activity against human KB-VIN10 cells expressing P-gp170/MDR after 72 hrs by methylene blue assay. Format: functional, cell-based. Conditions: KB-VIN10, 72 h.
A short description of data set [8]: Antiproliferative activity against human KB-S15 cells expressing P-gp170/MDR after 72 hrs by methylene blue assay. Conditions: KB-S15, 72 h. Format: functional, cell-based.
Data set [9] relates to HUVEC. The experiment in a line: Antivascular activity in HUVEC assessed as inhibition of VEGF-induced capillary tube formation at 50 nM after 4 hrs by microscopic analysis relative to control. In kind it is functional, Homo sapiens. Also noted: scale not given: the % may be the effect or the level left.
Data set [10] in a line: Toxicity in HUVEC assessed as cell viability at 500 nM after 4 hrs relative to control. Conditions: human, HUVEC cells; read-out: Activity. Format: cell-based.
Data set [11] is described as follows: Toxicity in HUVEC assessed as cell viability at 50 nM after 4 hrs relative to control. In kind it is cell-based. Conditions: human, HUVEC cells; read-out: Activity.
Data set [12] concerns HUVEC. The experiment in a line: Antivascular activity in HUVEC assessed as inhibition of VEGF-induced capillary tube formation at 2500 nM after 4 hrs by microscopic analysis relative to control. In kind it is functional, Homo sapiens. Also noted: scale not given: the % may be the effect or the level left.
A short description of data set [13]: Toxicity in HUVEC assessed as cell viability at 2500 nM after 4 hrs relative to control. Format: cell-based. To be noted: human, HUVEC cells; read-out: Activity.
Data set [14] can be described thus: Toxicity in HUVEC assessed as cell viability at 100 nM after 4 hrs relative to control. In kind it is cell-based. Conditions: human, HUVEC cells; read-out: Activity.
In data set [15] the test system is HUVEC. Nature of the data set: Antivascular activity in HUVEC assessed as inhibition of VEGF-induced capillary tube formation at 100 nM after 4 hrs by microscopic analysis relative to control. Format: functional, Homo sapiens. Also noted: scale not given: the % may be the effect or the level left.
Data set [16] concerns HUVEC. The experiment in a line: Antivascular activity in HUVEC assessed as inhibition of VEGF-induced capillary tube formation at 500 nM after 4 hrs by microscopic analysis relative to control. Format: functional, Homo sapiens. Also noted: scale not given: the % may be the effect or the level left.
A short description of data set [17]: Toxicity in HUVEC assessed as cell viability at 20 nM after 4 hrs relative to control. Conditions: human, HUVEC cells; read-out: Activity. In kind it is cell-based.
The subject of data set [18] is HUVEC. The experiment in a line: Antivascular activity in HUVEC assessed as inhibition of VEGF-induced capillary tube formation at 20 nM after 4 hrs by microscopic analysis relative to control. Format: functional, Homo sapiens. Also noted: scale not given: the % may be the effect or the level left.

Sequence of Tubulin (Q6B856 whole entry): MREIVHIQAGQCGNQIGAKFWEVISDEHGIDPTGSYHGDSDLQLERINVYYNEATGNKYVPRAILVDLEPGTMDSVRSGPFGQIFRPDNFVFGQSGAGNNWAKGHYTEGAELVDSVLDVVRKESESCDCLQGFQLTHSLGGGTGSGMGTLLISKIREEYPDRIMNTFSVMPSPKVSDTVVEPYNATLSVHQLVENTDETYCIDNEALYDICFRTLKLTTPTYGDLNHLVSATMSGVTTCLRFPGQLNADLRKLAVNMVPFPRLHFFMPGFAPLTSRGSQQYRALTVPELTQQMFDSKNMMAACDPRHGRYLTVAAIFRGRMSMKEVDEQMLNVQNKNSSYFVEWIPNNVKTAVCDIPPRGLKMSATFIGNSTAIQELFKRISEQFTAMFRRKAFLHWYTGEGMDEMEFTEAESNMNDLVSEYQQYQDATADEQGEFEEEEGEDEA
Sequence of Tubulin (Q862F3 whole entry): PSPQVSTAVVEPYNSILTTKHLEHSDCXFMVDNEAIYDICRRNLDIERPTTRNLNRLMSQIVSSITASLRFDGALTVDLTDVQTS

`COc1cc(C(=O)c2cccc3c2ccn3C)c(O)c(OC)c1OC`: the pIC50 in [1] is 7.40; in data set [4], 5.09; in data set [5], 7.26; in data set [6], 7.24; in data set [7] it was 7.37; in data set [8] it was 7.49. In addition, the result in data set [2] was Active. The compound further gave an inhibition in data set [3] of 66.3%.

`CC[C@]1(O)C[C@H]2CN(CCc3c([nH]c4ccccc34)[C@@](C(=O)OC)(c3cc4c(cc3OC)N(C=O)[C@H]3[C@@](O)(C(=O)OC)[C@H](OC(C)=O)[C@]5(CC)C=CCN6CC[C@]43[C@@H]65)C2)C1` [VINCRISTINE]: the pIC50 in data set [1] was 8.82; in [8] it was 8.68.

For the compound `COc1cc(C(=O)c2ccc3c(ccn3C)c2)c(O)c(OC)c1OC`, the pIC50 in data set [1] is 7.74; in [4], 5.31; in data set [5], 7.03; in data set [6], 7.48; in [7], 7.68; in [8] it was 7.79. In addition, in data set [2], the outcome was Active. Besides, the Activity in data set [9] came out at 72%; in data set [12] it was 0%; in [15] it was 53%; in data set [16], 41%. For the same compound, the viability at 4 h, 0.5 µM in data set [10] worked out at 97%. Moreover, the viability at 4 h, 0.05 µM in data set [11] is 95%. Moreover, the inhibition in data set [3] was 84.4%. Further, the viability at 4 h, 2.5 µM in [13] was 95%. For the same compound, the viability at 4 h, 0.1 µM in data set [14] was 94%.

With `COc1ccc(/C=C\c2cc(OC)c(OC)c(OC)c2)cc1O` [COMBRETASTATIN A4], the viability at 4 h, 0.02 µM in data set [17] is 94%. This compound had a pIC50 in data set [5] of 8.49. The Activity in data set [18] is listed as 0%.

In the case of `COc1ccc2nc(C(=O)c3cc(OC)c(OC)c(OC)c3O)ccc2c1`, the result in data set [2] was Active. Besides, the pIC50 in data set [5] is 5.93; in data set [6] it was 6.64.

On to `COc1cc(C(=O)c2ccnc3ccccc23)c(O)c(OC)c1OC`, for which, in data set [2], the result was Active. For the same compound, the values for the pIC50 in data set [5] and in data set [6] were 5.22 and 5.11, respectively.

Turning to `COc1cc(C(=O)c2ccc3ncccc3c2)c(O)c(OC)c1OC`, the outcome in data set [2] was Active. Besides, the figures for the pIC50 in data set [5] and in [6] were 6.94 and 7.64, respectively.

In turn, `CC(=O)O[C@H]1C(=O)[C@@]2(C)[C@H]([C@H](OC(=O)c3ccccc3)[C@]3(O)C[C@H](OC(=O)[C@H](O)[C@@H](NC(=O)c4ccccc4)c4ccccc4)C(C)=C1C3(C)C)[C@]1(OC(C)=O)CO[C@@H]1C[C@@H]2O` [PACLITAXEL] had a pIC50 in [1] of 8.08.

For `COc1cc([C@@H]2c3cc4c(cc3[C@@H](O[C@@H]3O[C@@H]5CO[C@@H](C)O[C@H]5[C@H](O)[C@H]3O)[C@H]3COC(=O)[C@H]23)OCO4)cc(OC)c1O` [ETOPOSIDE], in data set [8], the pIC50 is 5.46.

Turning to `COc1ccc2c(C(=O)c3cc(OC)c(OC)c(OC)c3O)c[nH]c2c1`, the pIC50 is 8.07 in data set [1]; 5.38 in data set [4]; 7.98 in data set [5]; 8.06 in data set [6]; 8.02 in [7]; 8.24 in data set [8]. The outcome in data set [2] was Active. Also, the Activity was found to be 72% in [9], 0% in data set [12], 49% in [15] and 0% in data set [16]. The viability at 4 h, 0.5 µM in [10] is 93%. Also, the viability at 4 h, 0.05 µM in data set [11] worked out at 100%. In addition, the inhibition in data set [3] came out at 87.2%. The viability at 4 h, 2.5 µM in [13] amounted to 99%. Besides, the viability at 4 h, 0.1 µM in [14] was 96%.
